Results taken from US20180078576A1, “SULPHATED XYLANS FOR TREATMENT OR PROPHYLAXIS OF RESPIRATORY DISEASES” (Paradigm Biopharmaceuticals Limited, priority 2007, published 2018).
Marks after values point to notes of the source that are not given here.

Key:
[1] = target: T1, recombinant human IL-5 (rhIL-5) (Homo sapiens, UniProt P05113); experiment: BIAcore inhibition of IL-5 binding to immobilized heparin; conditions: BIAcore chip, titration, FIG. 3B
T1 construct: made in house; host or cells: baculovirus expression system
T1 sequence (P05113 20-134): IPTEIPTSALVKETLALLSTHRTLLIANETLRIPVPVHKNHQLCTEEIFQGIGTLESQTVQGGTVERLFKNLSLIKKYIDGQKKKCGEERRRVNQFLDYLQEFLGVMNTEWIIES
Excerpt: (§1) The optical phenomenon of surface plasmon resonance is used to monitor physical interactions between molecules. Passing a solution of a potential protein ligand (e.g. IL-4, IL-5 or eotaxin) over a sensor surface to which a target (e.g. heparin) is coupled monitors the real-time binding of protein ligands to the immobilized target. Detection is achieved by measuring refractive index changes very close to the sensor surface. When the refractive index is altered, the angle at which plasmon resonance occurs changes and this change directly correlates with the amount of protein interacting with the surface. A BIAcore 2000 is conveniently used. […]
(§2) Biotinylated heparin is immobilized on the biosensor chip. […] Solutions containing potential protein ligands of interest are injected over the sensor chip surface, and the binding is measured in real time (Fernig, In: Proteoglycan protocols, Ed. R. V. Iozzo, Humana Press, Totowa, N.J., USA, 2001). Baculovirus expressed recombinant human IL-4 (rhIL-4) and baculovirus expressed recombinant human IL-5 (rhIL-5) readily bind to heparin immobilized by this method (see PCT/AU2005/000551). […] Similarly, recombinant human eotaxin (CCL11) expressed in E. coli binds readily to immobilized heparin and binding is specific as there is little eotaxin binding to sensor chips lacking heparin. […]

[2] = target: T2, recombinant human eotaxin (CCL11) (Homo sapiens, UniProt P51671); experiment: BIAcore inhibition of eotaxin-1 binding to immobilized heparin; conditions: BIAcore chip, FIG. 3D
T2 construct: host or cells: E. coli
Excerpt: as §1, §2

Human leukocyte elastase = target: T3, Human leukocyte elastase (Homo sapiens, UniProt P08246); experiment: Elastase assay with fluorogenic substrate; assay type: biochemical; conditions: fluorogenic substrate MeOSuc-Ala-Ala-Pro-Val-amido-methylcoumarin, pH 7.4, 37° C., 60 minutes; read-out: IC50, inhibition of human leukocyte elastase activity
T3 sequence (P08246 30-267): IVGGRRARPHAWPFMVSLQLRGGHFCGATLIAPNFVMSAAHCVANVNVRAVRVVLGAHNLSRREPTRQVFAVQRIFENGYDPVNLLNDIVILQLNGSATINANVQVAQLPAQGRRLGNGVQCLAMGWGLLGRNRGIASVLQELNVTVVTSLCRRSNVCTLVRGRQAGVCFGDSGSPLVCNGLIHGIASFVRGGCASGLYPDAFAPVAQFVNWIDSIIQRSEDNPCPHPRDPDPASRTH
Procedure: Elastase is a protein that is a potential target for the treatment of COPD. Elastase assays were performed in 96-well plastic microplates for easy quantification by the fluorescent plate reader. Human leukocyte elastase (5 nM/well) was incubated in the presence of absence of pentosan polysulfate, or other sulfated polysaccharides, with the fluorogenic substrate MeOSuc-Ala-Ala-Pro-Val-amido-methylcoumarin (20 μM/well) in a sodium phosphate buffer, pH 7.4. The mixture was incubated at 37° C. for 60 minutes before the reaction was stopped by the addition of 10 μl/well of […] acetic acid and the mixture transferred to a 96-well microplate with fluorescence being measured using an excitation wavelength of 355 nm and an emission wavelength of 460 nm. Various concentrations of inhibitors were used to allow the calculation of the concentration of polysaccharide required to inhibit enzyme activity by 50% (IC50).

[3] = tested on: Guinea-pigs sensitized to ovalbumin; experiment: Guinea pig model of asthma, airway hyper-reactivity 24 h after OVA challenge; assay type: in vivo; conditions: Dexamethasone 15 mg/kg, glycan compounds 10 mg/kg, intratracheal microspray
Procedure: A guinea pig model of asthma was used. Guinea-pigs (8 per group) were sensitized to ovalbumin by two intraperitoneal injections of ovalbumin (grade V, 20 μg) in aluminium hydroxide gel on Days 1 and 11. On day 20 (24 hours prior to assessing airway hyper-reactivity (AHR)) each animal received a challenge dose of OVA—this took the form of a 1 hour aerosol exposure of OVA (10 μg). The negative control animals received, no sensitization and no challenge. The positive controls were sensitized and challenged but were either given no further treatment or were treated with vehicle (saline). Test compounds (PPS and the sulfated xylan pentasaccharide) and vehicle were administered by intratracheal administration as an aqueous microspray using a Penn Century device. The device used was the FMJ250 high pressure syringe and a 1A-1C microspray delivery tube. The particle size delivery goes up to 32 μm. During the study the volume delivered was 100 ul for all test formulations. The test compounds were administered 30 min before challenge with OVA. The animals underwent surgery 24 hours after challenge to insert a cannula into the trachea, the cannula was connected to the instrumentation which measured pressure and changes in airflow. After surgery the animals were allowed to stabilize for 10 min before baseline readings were taken. Bronchoconstriction was evoked with aerosolized methacholine (10 mg/ml and 30 mg/ml) for 20 seconds. The difference between baseline readings and that obtained after methacholine were used to calculate Cdyn and RL. Thus, measurements of lung function were taken approximately 25 hours after the drug was administered. Both pentosan polysulfate and the sulfated xylan pentasaccharide when administered at 10 mg/kg were effective in reducing the airway hyper-reactivity readings. Their efficacy was approximately equivalent to that usually seen with 7.5 mg/kg of dexamethasone in this model.

IC50 [1]	IC50 [2]	IC50 (Human leukocyte elastase)	Compound	Cdyn, % increase from that of the positive control ([3]; MCh 10 mg/ml)	RL, % decrease from that of the positive control ([3]; MCh 10 mg/ml)	Cdyn, % increase from that of the positive control ([3]; MCh 30 mg/ml)	RL, % decrease from that of the positive control ([3]; MCh 30 mg/ml)
30 to 100 nM	~160 nM	~200 nM	heparin	–	–	–	–
–	–	–	C[C@@H]1C[C@H]2[C@@H]3CCC4=CC(=O)C=C[C@]4(C)[C@@]3(F)[C@@H](O)C[C@]2(C)[C@@]1(O)C(=O)CO [Dexamethasone]	76.5% **	93.9% **	84.8% **^	86% **
